The values below come from patent publication US9127027B2, “Epoxyeicosatrienoic acid analogs and methods of making and using the same” (The Medical College of Wisconsin, Inc., priority 2011, dated 2015).

Like-named read-outs stand apart in the source and are kept apart here.

One data set deals with Human recombinant sEH (Homo sapiens (Human), UniProt P34913). Kind of data set: Soluble epoxide hydrolase inhibition (PHOME fluorescent substrate). The settings on record: Table 1 head prints μM (Table 2 prints nM for same numbers); read-out: sEHi IC50. The format is biochemical. On the procedure: Compounds were tested for their ability to inhibit recombinant soluble epoxide hydrolase (sEH) protein. The assay utilizes (3-Phhenyl-oxiranyl)-acetic acid cyano-(6-methoxy-naphthalen-2-yl)-methyl ester (PHOME), a sensitive substrate for sEH that can be used to monitor the activity of both human and murine enzymes. […] Human recombinant sEH was incubated with substrate and compounds ranging in concentration from 0.1 to 1000 nM.
Chain of Human recombinant sEH (P34913 whole entry): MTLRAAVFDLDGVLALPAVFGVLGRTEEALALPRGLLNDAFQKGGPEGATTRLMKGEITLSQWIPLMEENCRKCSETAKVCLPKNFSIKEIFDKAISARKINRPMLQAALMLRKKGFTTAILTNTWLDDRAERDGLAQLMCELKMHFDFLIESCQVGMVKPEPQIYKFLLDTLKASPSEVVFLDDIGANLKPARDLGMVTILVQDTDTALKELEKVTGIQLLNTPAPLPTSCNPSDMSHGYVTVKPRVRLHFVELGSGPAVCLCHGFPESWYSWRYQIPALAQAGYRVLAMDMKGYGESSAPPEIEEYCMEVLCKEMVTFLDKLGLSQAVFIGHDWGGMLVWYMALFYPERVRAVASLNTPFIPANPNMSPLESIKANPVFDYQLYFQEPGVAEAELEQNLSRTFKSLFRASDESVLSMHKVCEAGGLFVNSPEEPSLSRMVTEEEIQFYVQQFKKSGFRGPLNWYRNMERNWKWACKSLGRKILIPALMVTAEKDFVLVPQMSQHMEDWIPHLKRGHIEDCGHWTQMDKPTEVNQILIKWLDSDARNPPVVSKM

For a further data set, the system named is bovine coronary artery. Kind of data set: Vasorelaxant activity in bovine coronary artery rings precontracted with U-46619. The settings on record: Bos taurus. Format: cell-based. On the procedure:
Vasorelaxant activity was measured in bovine coronary artery. Bovine hearts were obtained and the left anterior descending coronary artery was dissected and cleaned of connective tissue. Vessels of 1 mm diameter were cut into rings of 3 mm width as previously described (3, 27, 39). […] The vessels were suspended from a pair of stainless steel hooks in a 6-ml water-jacketed organ chamber. […] One hook was anchored to a steel rod and the other hook to a force transducer (model FT-03C; Grass Instruments, West Warwick, R.I.). Tension of the vessel was measured by an ETH-400 bridge amplifier, and the data were acquired with a MacLab 8e analog-to-digital converter and MacLab software version 3.5.6 (AD Instruments, Milford, Mass.) and stored on a Macintosh computer for subsequent data analysis.
Basal tension was set at the length-tension maximum of 3.5 g and equilibrated for 1.5 h. KCl (40 mM) was added to the chamber until reproducible maximal contractions were maintained. […] Cumulative additions of compounds were added to the chamber. Between concentration-response curves, the chambers were rinsed with fresh Krebs buffer, 40 mM KCl was administered to determine the maximum contraction, and the vessels were rinsed. Consecutive concentration-response curves were performed with 14,15-EET followed by a concentration-response curve to a compound. The experiment was always repeated with the order of the agonists reversed. […] The relaxation was plotted versus compound concentration and the EC50 determined utilizing statistical software.

Another data set relates to NCCIT cells. Kind of data set: Cell viability (alamar blue), cisplatin with concurrent EET-A. The format is cell-based, human. The protocol: In this study, HEK293, U87MG, Hela cell-lines were obtained from the ATCC (Manassas, Va., USA) (HEK293, U87MG, Hela), and NCCIT was collected from Department of Pediatrics, UT Southwestern Medical Center at Dallas, Tex., USA. All cell lines were maintained in DMEM or RPIM with 10% fetal bovine serum and penicillin/streptomycin purchased from Life Technologies (Grand Island, N.Y., USA). Cisplatin was purchased from either Sigma (St. Louis, Mo., USA) or CalBiochem/EMD Biosciences (Billerica, Mass., USA). Cells were seeded in 96-well plates at 500 to 4,000 cells per well depends on cell type. […] Cell viability was measured by alamar blue assay using resazurin (Sigma Aldrich) according to the manufacturer's guidelines. Viability results were measured by fluorescence/absorbance in a 96-well plate reader from BMG Labtech (Cary, N.C., USA) and the IC50 was calculated by GraphPad Prism® software (GraphPad Software Inc, La Jolla, Calif., USA).

In the case of `CCCCCNC(=O)NCCCC/C=C\CCOc1cccc2sc(NC(C)=O)nc12` [Compound 33, N-(4-(8-(3-n-Pentylureido)oct-3(Z)-enyloxy)benzo[d]thiazol-2-yl)acetamide], the melting point lay in the range of 113.7 to 113.8 °C. In addition, on Human recombinant sEH, the IC50 is 0.282 µM. Moreover, the activation at 10 µM with bovine coronary artery (10 μM, 100% relaxation = basal pre-U-46619 tension, read-out: Vascular Relax. % (10 μM)) amounted to 73%. Moreover, the EC50 in the data set with bovine coronary artery (bovine coronary artery, read-out: Vascular Relax. EC50) was 3300 nM.

On to `N.N.[Cl][Pt][Cl]` [cisplatin], for which the IC50 in the data set on NCCIT cells (read-out: IC50 for cisplatin, with 0 ng/ml EET-A) came to 2600 nM; in the data set on NCCIT cells (read-out: IC50 for cisplatin, with 1 ng/ml EET-A), 2550 nM; in the data set with NCCIT cells (read-out: IC50 for cisplatin, with 10 ng/ml EET-A), 2440 nM.
